# Assay results taken from a melting point compilation (Tetko et al.; mined from patent text by program, amines drawn as free bases though some values may be those of a salt).
row,Structure (SMILES),melting point [°C]
1,O=C(CCl)Nc1ccc2c(c1NC(=O)c1ccccc1C(F)(F)F)C(=O)c1ccccc1C2=O,248 to 250
2,CCOC(=O)C(C)(C)CCCCOc1cc(C)c(N)c(C)c1,32 to 34
3,CSc1nc(C)ccc1NC(=O)CSc1nc2ccccc2[nH]1,192 to 193
4,CCS(=O)(=O)Nc1cccc(C=C2c3ccccc3CCc3ccccc32)c1,180
5,Cc1cc(C2=CCN(S(=O)(=O)C(C)(C)C(=O)O)CC2)ccc1-c1cnc2ccccc2c1,222 to 224
6,Cn1c(=O)c(=O)[nH]c2ccc3c(c21)CCCN3,> 285
7,O=C(Oc1ccccc1)N1CCC2(CC1)SC(c1ccccc1F)c1ccccc12 (configuration not stated),122 to 123
8,COC(=O)c1nc(C)c(F)c(N)c1Cl,113 to 114
9,COC(=O)c1c(N)ncn1C(c1ccccc1)c1ccccc1,199 to 201
10,C[C@@H]1O[C@@]1(Cn1cncn1)c1ccc(Cl)cc1,51 to 53
11,Cc1cc(=O)oc2c(C)c3c(cc12)CCCO3,162 to 163
12,Cc1csc(N)c1S(=O)(=O)NC(=S)NC(C)C,118 to 120
13,COC(=O)[C@H](C)N(C(=O)[C@H](CC(C)C)NC(=O)OCc1ccccc1)c1ccc(-c2ccccc2)cc1,126 to 127
14,O=C(NC(=O)c1c(Cl)cccc1Cl)Nc1ccc(C(F)(F)F)cn1,228 to 230
15,Cn1cc(-c2nc3c(N[C@H]4[C@@H](C(N)=O)[C@@H]5C=C[C@H]4C5)c(Br)cnc3[nH]2)cn1,255 to 258
16,O=C(NCc1ccc(Cl)cc1)c1cnc2sccc2c1O,238 to 240
17,O[C@@H]1CN(Cc2ccccc2)C[C@@H]1Oc1cccc(Cl)c1 (relative stereo),86 to 87.5
18,COc1ccc(C2=C(C(=O)O)N(Cc3ccc4c(c3)OCO4)S(=O)(=O)c3ccccc32)cc1OC,267 to 268
19,CC(=O)OC1CSC(Oc2cncc(C#N)c2)C(OC(C)=O)C1OC(C)=O (configuration not stated),147

row,Structure (SMILES),melting point [°C]
1,Cc1ccc(Sc2ccc(C)cc2)cc1,56.5
2,Cn1cc(-c2cccc(C(F)(F)F)c2)c(=O)c(-c2ccccc2Cl)c1,191 to 193
3,CCc1nc2c(C)c(S(=O)(=O)N(C)C)c(C)nc2n1Cc1ccc(-c2ccccc2-c2c(OC(C)C)c(=O)c2=O)cc1,80
4,O=C(Nc1ccc(OC(F)F)cc1)N1N=C(c2ccc(Cl)cc2)CC1c1ccc(Cl)cc1 (configuration not stated),174
5,CC(C)(C)OC(=O)NCCOc1noc2ccc(Cl)cc12,106 to 107
6,CCCCCCCCCCC(=O)C(=O)CCCCCCCCCC,68.5 to 69
7,CC(C)C(=O)NC1CCc2c(c3cc(C#N)ccc3n2Cc2ncccc2F)C1 (configuration not stated),213 to 216
8,Cc1ncc2n1-c1ccc(C(C)O)cc1C(c1ccccc1)=NC2 (configuration not stated),223 to 225
9,Cc1cc(C)c2cccc(C(=O)Nc3nnn[nH]3)c2n1,300 to 305
10,CCCN(c1ccncn1)n1cc(C)c2ccccc21,74 to 76
11,COCC(=O)c1cnc(C2OCCO2)s1,65 to 66
12,CC(C)(C)OC(=O)N(c1ccccc1)S(=O)(=O)c1ccc2c(c1)CCC(C)(C)O2,117 to 120
13,CCOC(=O)CC1(c2ccc(OC)c(OC)c2)CNC(=O)C1 (configuration not stated),60 to 62
14,O=C(CCl)NC(c1ccc(F)cc1)c1ccc(F)cc1,128
15,Cc1ccc(S(=O)(=O)N(C)c2ccc(S(C)(=O)=O)cc2C#N)cc1,179 to 180
16,CCOC(=O)CCCNC(=O)c1n[nH]cc1NC(=O)c1ccccn1,179 to 180
17,CCCCCCCCCCCCCCCCCC(O)c1ccc(C(=O)O)c(Cl)c1 (configuration not stated),93 to 96
18,COc1cc(CN2CCCC2)ccc1OCC(=O)Nc1ccc(-c2ccc(Cl)cc2)cc1,89 to 91
19,COc1ccc(NC(=O)c2ccc(-c3ccc(-c4noc(CO)n4)cc3C)cc2)cc1N1CCN(C)CC1,175 to 178

row,Structure (SMILES),melting point [°C]
1,C[C@@]1(CBr)OC(=O)[C@H]2CCCN2C1=O,107 to 109
2,CC(C)c1nn(-c2nc3ccccc3s2)c(-c2ccc(F)cc2)c1C=CC1CC(O)CC(=O)O1 (configuration not stated),168 to 170
3,N#CC(=Cc1ccc(CBr)cc1)c1ccccc1,61
4,COc1nc(O)cc(CCl)n1,154 to 155
5,CC(C)(C)C(O)C(Oc1ccccc1)n1ccnc1 (configuration not stated),99 to 105
6,Cc1c(CO)c(Cl)nc2ccccc12,> 260
7,O=C(Nc1c(Cl)ccc2nc(N3CCNCC3)ccc12)C1(C2CCCCC2)CC1,219
8,O=C(Nc1ccc(Oc2ccnc(NCCN3CCCCC3)n2)c2ccccc12)c1cc(F)cc(N2CCCCC2)c1,88 to 89
9,CO/C=C(/C(=O)OC)c1ccccc1C=O,67 to 69
10,Clc1ncc(Cl)c(-c2ccc(Cl)c(Cl)c2)n1,125 to 126
11,O=C(Nc1ccc2c(c1)OCCO2)NC12CC3CC(CC(C3)C1)C2,230 to 236
12,N[C@@H](Cc1cc(F)cc(F)c1)[C@H](O)CO,93
13,COc1ccc(CCNC(=O)c2ccc3c(c2)C=CC(C)(C)O3)cc1,105 to 107
14,O=C(OCc1ccccc1)N1CCN(c2ccc(-c3ccnc(Cl)n3)cn2)CC1,145 to 147
15,CC1(C(=O)c2c[nH]c3ncc(-c4cccs4)nc23)CCCCC1,224 to 225
16,Nc1nc(Cl)cc(NC2C=CC(CO)C2)n1 (configuration not stated),132 to 134
17,O=C(OCc1ccccc1)c1ncn2c1[C@@H]1CCN1C(=O)c1c(Cl)cccc1-2,180 to 182
18,Cc1ccc(N2CCOCC2)c(NC(N)=S)c1,181 to 182
19,C=CCN(C#N)c1c(Cl)ccc2nsnc12,62 to 63

# Second part, the molecule after the results:
row,melting point [°C],Structure (SMILES)
1,95,CCCCCOc1ccc(CCOc2ccc(/C=C(\OCC)C(=O)O)cc2OCCCC)cc1Cl
2,92 to 94,COc1cc(OCC(=O)O)c(C)cc1SCc1cccc(-c2cccc(OC(F)(F)F)c2)c1
3,182 to 184,Nc1ncnc2c1c(CCCO)nn2Cc1oc2ccccc2c(=O)c1-c1ccccc1
4,178,CCCCc1nc2c(n1Cc1ccc(-c3ccccc3S(=O)(=O)NC(=O)NCCC)cc1)C(=NO)CCS2
5,138 to 140,COc1ccc2c(c1)C(=O)OC(=O)C2
6,119 to 121,COc1ccc(C)cc1NC(=O)Nc1ccc2c(c1)CCN(C(=O)Nc1ccc(OCC(O)CO)cc1Cl)C2 (configuration not stated)
7,63 to 65,CCc1cccc(C2(O)C3CC4CC(C3)CC2C4)c1 (configuration not stated)
8,135 to 138,COc1cccc(NC(=O)Nc2ccc(N3CCN(C(=O)Nc4ccc(OCCO)cc4C(F)(F)F)CC3)cc2)c1OC
9,229 to 231,Cc1c(OCc2ccccc2)ccc2c(O)c(C(=O)Nc3cccc(Br)c3)c(=O)oc12
10,129 to 131,O=C(NCC(=O)c1c(O)cc(O)cc1OCc1ccccc1)OCc1ccccc1
11,150 to 152,O=C(O)COc1ccc(-c2ccc(-c3c(Cc4ccccc4)sc4ccccc34)cc2)cc1Br
12,156 to 158,CC(C)(C)OC(=O)NCC(=O)Nn1cccc1C(=O)c1ccccc1Cl
13,109 to 110,O=C(O)CCc1cn(Cc2cc(OCc3ccccc3)cc(OCc3csc(-c4cnccn4)n3)c2)cc1-c1ccccc1
14,79 to 80,CCOC(=O)CCN1CCN(C2=Nc3ccccc3Sc3ccc(Cl)cc32)CC1
15,89 to 90,N#CCCCN1CCOC(c2ccccc2)(c2ccccc2)CC1
16,> 250,O=c1[nH]c(N2CCOCC2)nc2c1CC(S(=O)(=O)c1ccccc1)CC2 (configuration not stated)
17,146,CCCCCC(C=Cc1ccc(C(=O)O)cc1)c1ccc2c(c1)C(C)(C)CCS2 (racemic)
18,197 to 198,CC(=O)NCCn1nnnc1Sc1ccc([N+](=O)[O-])cc1[N+](=O)[O-]
19,155,COc1cc2c(cc1OC)CN(CCCSc1ccc(NC(=O)c3cccc4c(=O)c5cccc(C)c5[nH]c34)cc1)CC2
20,169,O=c1n(-c2ccc(Cl)cc2)c(=O)n(SC(Cl)(Cl)Cl)n1SC(Cl)(Cl)Cl

row,melting point [°C],Structure (SMILES)
1,134 to 136,CSc1nc(NC2CCCCC2)c2nsnc2n1
2,67 to 69,CN(C)CCCOc1ccccc1C=C1CCc2ccccc2C1=O
3,193 to 195,Cc1cc(CC(=O)NCc2cccc3c2C(=O)N(C2CCC(=O)NC2=O)C3=O)c(C)o1 (configuration not stated)
4,291 to 294,CN1CCN(C2=NC(=O)C(=Cc3cccc(-c4ccc(O)c(C56CC7CC(CC(C7)C5)C6)c4)c3)S2)CC1
5,83 to 85,COC(=O)c1ccc2cc(CCCCCc3cc4ccc(C(=O)OC)cc4o3)oc2c1
6,134,CSc1nn(C(=O)NC(C)(C)C)c(=O)n1N
7,174 to 176,O=c1ccc(C(c2ccccc2)c2ccccc2)c[nH]1
8,77 to 79,COc1ccc(C(=O)CCC2CCN(C(C)=O)CC2)cc1NC(=O)C(F)(F)F
9,> 260,O=c1[nH]c2ccccc2c2c(=O)n(-c3ccccc3)[nH]c12
10,217 to 219,C[C@H](CO)Nc1nc(SCc2cccc(C(F)(F)F)c2F)nc2[nH]c(=O)cnc12
11,168 to 169,CC(=O)NCC1CN(c2ccc(N3CCC(C4NN=C(N)S4)CC3)c(F)c2)C(=O)O1 (configuration not stated)
12,196 to 197,Cc1cccc(C(C)(C)C)c1NC(=O)NCC1(c2ccccc2)CCCCC1
13,145 to 147,Cn1ncc(NCCN2CCC(c3noc4cc(F)ccc34)CC2)c(Cl)c1=O
14,97,COC(=O)c1cc(-c2c(Br)c(C(F)(F)F)n(C)c2Br)c(F)cc1Cl
15,120 to 121,COC(=O)COc1cc(Cl)c(SCc2cc(-c3ccc(C(F)(F)F)cc3)on2)cc1C
16,148 to 150,COc1cc(C(=O)N2CCN(C(=O)C=C(c3ccccc3)c3ccccc3)CC2)cc(OC)c1OC
17,228 to 231,CCOC(=O)c1cnc2c(c1O)CC(C)CC2 (configuration not stated)
18,171 to 174,COc1c(Cl)ccc(-c2cc(N)c(Cl)c(C(=O)NOCc3ccc(C)cc3)n2)c1F
19,212 to 213,Cc1c(NC(=O)CC(C)(C)C)cc2c(c1C)OC(C)(C)C2(O)Cc1ccccc1 (configuration not stated)
20,155 to 157,Cc1ccc2c3c(c(=O)oc2c1)CN(CCN1CC2CCC(CC2)C1)CC3
